Assay results from patent US12171842B2, “Method for hyperthermially treating a cancer” (Imam Abdulrahman Bin Faisal University, priority 2021, dated 2024).

Tests used:
[1] = test system: non-cancerous human foreskin fibroblasts (HFF); assay: Cell viability (MTT) and EC50, HFF; format: cell-based; settings: for effect on cell viability (in words): HFF, 48 h, four doses (nanocomposites 0.025-0.5 mg/ml)
Description: (§1) Human mammary adenocarcinoma (MCF7) and the non-cancerous human foreskin fibroblasts (HFF) cell lines were used to assess the cytotoxic effect of the prepared compounds. Cells were cultured in a DMEM culture medium containing 10% HI—FBS, 1% Penicillin Streptomycin, and 1% MEM NEAA. Cells were maintained in a humidified setting at 37° C. with 5% CO2. For cell viability assay, cells were seeded in a 96-well plate with a density of 20,000 cells/well. While for microscopic images, 50,000 cells/well were plated on an eight-well chamber slide. On the following day, cells were switched to the starve culture medium that contains 0.5% HI—FBS. Cells were maintained for 24 h in the starve medium before the treatment was added.
(§2) MCF7 and HFF cells were treated with the subsequent conditions for 48 h: CuFe2O4/Mesosilicalite, Curcumin, Cisplatin, CuFe2O4/Mesosilicalite/Curcumin, CuFe2O4/Mesosilicalite/Curcumin/Cisplatin, or CuFe2O4/MCM-41/Curcumin/Cisplatin. Treatment concentrations of CuFe2O4/Mesosilicalite, CuFe2O4/Mesosilicalite/Curcumin, CuFe2O4/Mesosilicalite/Curcumin/Cisplatin, and CuFe2O4/MCM-41/Curcumin/Cisplatin nanocomposites were: 0.025, 0.05, 0.1, and 0.5 mg/ml. Based on the drug loading experiments, simple calculations were followed to reflect the actual quantity of curcumin and cisplatin that adsorbed on CuFe2O4/Mesosilicalite nanoparticles. According to the loading experiments, 1 mg of CuFe2O4 nanoparticles contains 0.25 mg and 0.045 mg of curcumin and cisplatin, respectively. Thus, if CuFe2O4/Mesosilicalite concentration was 0.5 mg/ml, there is 0.125 mg/ml of adsorbed curcumin and 0.0225 mg/ml of functionalized cisplatin. Therefore, the treatment concentrations of curcumin were: 0.00625, 0.0125, 0.025 and 0.125 mg/ml and the treatment concentrations of cisplatin were: 0.001125, 0.00225, 0.0045 and 0.0225 mg/ml.
(§3) To assess the compounds' cytotoxicity, 3-(4,5-dimethylthiazol-2-yl)-2,5-diphenyltetrazolium bromide (MTT), a cell viability assay, was used. It measures the cell viability by assessing the mitochondria's ability to convert yellow MTT solution into purple formazan insoluble crystals. […] The difference in color intensity was measured by SYNERGY-neo2 BioTek ELISA reader at 570 nm as a measuring wavelength. The technical triplicate readings of each condition were averaged, and the absorbance from MTT negative control was deducted from these readings. An initial reading was measured before MTT addition at the same wavelength. Thus, to remove undesirable interference in the measurement, the initial reading was subtracted from the final reading. Then, the treatment groups were analyzed by comparing them to the control (untreated cells). Cell viability was calculated using the following equation (1): […]

[2] = test system: Human mammary adenocarcinoma (MCF7) cells; assay: Cell viability (MTT) and EC50, MCF7; format: cell-based; settings: for effect on cell viability (in words): MCF7, 48 h, four doses (nanocomposites 0.025-0.5 mg/ml)
Description: as §1, §2, §3

[3] = Cell viability (MTT) and EC50, HFF; format: cell-based, human; settings: human, HFF cells (non-cancerous human foreskin fibroblasts); HFF, third dose (0.1 mg/ml nanocomposite; 0.025 mg/ml curcumin), 48 h, versus untreated control
Description: as §1, §2, §3

Row | Compound | EC50 Value ([1]; HFF cell line, 48 h MTT, best-fit line) [µg/mL] | effect on cell viability (in words) [1] | effect on cell viability (in words) [2] | EC50 Value ([2]; MCF-7 cell line, 48 h MTT, best-fit line) [µg/mL] | viability at 48 h, 0.025 mg/ml [3] [%] | viability at 25 µg/mL ([2]; Homo sapiens, MCF7, third dose (0.1 mg/ml nanocomposite; 0.025 mg/ml curcumin), 48 h, versus untreated control) [%]
1 | N.N.[Cl][Pt][Cl] [Cisplatin, cisplatin] | 3.763 | reduction in cell viability | reduction in cell viability | 4.425 | – | –
2 | COc1cc(/C=C/C(=O)CC(=O)/C=C/c2ccc(O)c(OC)c2)ccc1O [Curcumin] | – | minimally reduced the cell viability | reduced cell viability only at the highest concentration | – | 84.1 | 80.7
